Measured values taken from patent publication US20240383875A1, “Benzimidazole Pyridine Derivatives” (Hoffmann-La Roche Inc., priority 2022, published 2024).

Assays:
Assay type in all cases: biochemical
SIK3 = SIK3 (Homo sapiens, UniProt Q9Y2K2); assay: Enzymatic activity assay SIK3, RapidFire mass spectrometry (phosphorylation of CHK-peptide); conditions: RapidFire MS, inhibition of SIK3; read-out: SIK3 RF IC50
In short: (§1)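 Compounds (12-point, 3-fold, generally 30 μM to 170 pM) were pre-incubated 30 min at ambient temperature with SIK1 (5 nM), SIK2 (0.5 nM) or SIK3 (1.5 nM) in HEPES pH 7.0/magnesium acetate buffer. CHK-peptide (10 μM solution) and ATP (100 μM solution) were then added for 45 min before formic acid quench.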

SIK1 = SIK1 (Homo sapiens, UniProt P57059); assay: Enzymatic activity assay SIK1, RapidFire mass spectrometry (phosphorylation of CHK-peptide); conditions: RapidFire MS, inhibition of SIK1; read-out: SIK1 RF IC50
Sequence of SIK1 (P57059 whole entry): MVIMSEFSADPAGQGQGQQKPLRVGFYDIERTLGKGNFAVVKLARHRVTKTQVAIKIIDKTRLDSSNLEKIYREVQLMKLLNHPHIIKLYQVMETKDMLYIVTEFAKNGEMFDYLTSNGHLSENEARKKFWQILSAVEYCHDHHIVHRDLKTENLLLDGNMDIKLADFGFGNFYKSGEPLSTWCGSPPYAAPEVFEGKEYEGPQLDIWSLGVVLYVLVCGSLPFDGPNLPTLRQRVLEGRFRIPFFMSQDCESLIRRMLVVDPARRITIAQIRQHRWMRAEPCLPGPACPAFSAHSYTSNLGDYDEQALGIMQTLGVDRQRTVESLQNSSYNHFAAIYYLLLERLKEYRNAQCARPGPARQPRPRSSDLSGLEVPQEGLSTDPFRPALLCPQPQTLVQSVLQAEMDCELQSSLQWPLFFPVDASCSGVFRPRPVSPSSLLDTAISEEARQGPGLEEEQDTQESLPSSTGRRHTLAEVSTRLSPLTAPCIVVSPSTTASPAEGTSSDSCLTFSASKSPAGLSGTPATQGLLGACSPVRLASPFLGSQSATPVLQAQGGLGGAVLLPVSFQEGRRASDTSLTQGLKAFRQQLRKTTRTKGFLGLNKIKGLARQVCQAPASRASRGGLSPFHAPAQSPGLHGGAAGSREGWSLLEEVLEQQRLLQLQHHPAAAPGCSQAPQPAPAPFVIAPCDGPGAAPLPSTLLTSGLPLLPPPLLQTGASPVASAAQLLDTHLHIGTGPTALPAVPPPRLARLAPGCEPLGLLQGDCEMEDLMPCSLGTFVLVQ
In short: as §1

SIK2 = SIK2 (Homo sapiens, UniProt Q9H0K1); assay: Enzymatic activity assay SIK2, RapidFire mass spectrometry (phosphorylation of CHK-peptide); conditions: RapidFire MS, inhibition of SIK2; read-out: SIK2 RF IC50
Sequence of SIK2 (Q9H0K1 whole entry): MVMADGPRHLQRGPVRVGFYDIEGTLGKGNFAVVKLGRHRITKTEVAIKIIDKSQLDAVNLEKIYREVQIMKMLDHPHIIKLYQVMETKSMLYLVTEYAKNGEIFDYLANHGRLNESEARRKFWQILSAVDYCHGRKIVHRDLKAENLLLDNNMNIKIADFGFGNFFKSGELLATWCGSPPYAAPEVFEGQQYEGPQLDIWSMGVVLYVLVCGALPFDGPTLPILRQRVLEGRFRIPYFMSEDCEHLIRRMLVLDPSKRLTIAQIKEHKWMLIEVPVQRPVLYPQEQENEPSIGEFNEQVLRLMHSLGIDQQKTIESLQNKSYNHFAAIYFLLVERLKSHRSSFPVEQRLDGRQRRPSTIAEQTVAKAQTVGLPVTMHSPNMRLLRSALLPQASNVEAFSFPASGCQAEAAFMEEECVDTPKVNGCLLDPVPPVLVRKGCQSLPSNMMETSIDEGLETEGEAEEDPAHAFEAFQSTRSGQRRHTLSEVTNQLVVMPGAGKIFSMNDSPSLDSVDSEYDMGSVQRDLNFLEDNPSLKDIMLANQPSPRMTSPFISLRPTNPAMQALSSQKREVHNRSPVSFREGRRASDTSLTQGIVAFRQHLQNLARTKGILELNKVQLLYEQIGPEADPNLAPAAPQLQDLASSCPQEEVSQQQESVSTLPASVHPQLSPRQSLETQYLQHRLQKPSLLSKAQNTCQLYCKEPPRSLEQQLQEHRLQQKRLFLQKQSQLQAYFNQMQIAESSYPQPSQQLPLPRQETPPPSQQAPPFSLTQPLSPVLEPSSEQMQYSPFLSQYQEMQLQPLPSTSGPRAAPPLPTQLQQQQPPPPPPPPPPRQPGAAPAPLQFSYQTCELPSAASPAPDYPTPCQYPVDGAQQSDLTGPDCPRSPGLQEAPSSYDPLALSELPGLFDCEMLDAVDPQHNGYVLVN
In short: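 SIK2 (0.5 nM) in pH 7.0 HEPES buffer with 10 mM Mg acetate phosphorylates CHK-peptide (10 μM solution) with 100 μM ATP solution, 45 min ambient, then formic acid quench.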

Sequence of SIK3 (Q9Y2K2 whole entry): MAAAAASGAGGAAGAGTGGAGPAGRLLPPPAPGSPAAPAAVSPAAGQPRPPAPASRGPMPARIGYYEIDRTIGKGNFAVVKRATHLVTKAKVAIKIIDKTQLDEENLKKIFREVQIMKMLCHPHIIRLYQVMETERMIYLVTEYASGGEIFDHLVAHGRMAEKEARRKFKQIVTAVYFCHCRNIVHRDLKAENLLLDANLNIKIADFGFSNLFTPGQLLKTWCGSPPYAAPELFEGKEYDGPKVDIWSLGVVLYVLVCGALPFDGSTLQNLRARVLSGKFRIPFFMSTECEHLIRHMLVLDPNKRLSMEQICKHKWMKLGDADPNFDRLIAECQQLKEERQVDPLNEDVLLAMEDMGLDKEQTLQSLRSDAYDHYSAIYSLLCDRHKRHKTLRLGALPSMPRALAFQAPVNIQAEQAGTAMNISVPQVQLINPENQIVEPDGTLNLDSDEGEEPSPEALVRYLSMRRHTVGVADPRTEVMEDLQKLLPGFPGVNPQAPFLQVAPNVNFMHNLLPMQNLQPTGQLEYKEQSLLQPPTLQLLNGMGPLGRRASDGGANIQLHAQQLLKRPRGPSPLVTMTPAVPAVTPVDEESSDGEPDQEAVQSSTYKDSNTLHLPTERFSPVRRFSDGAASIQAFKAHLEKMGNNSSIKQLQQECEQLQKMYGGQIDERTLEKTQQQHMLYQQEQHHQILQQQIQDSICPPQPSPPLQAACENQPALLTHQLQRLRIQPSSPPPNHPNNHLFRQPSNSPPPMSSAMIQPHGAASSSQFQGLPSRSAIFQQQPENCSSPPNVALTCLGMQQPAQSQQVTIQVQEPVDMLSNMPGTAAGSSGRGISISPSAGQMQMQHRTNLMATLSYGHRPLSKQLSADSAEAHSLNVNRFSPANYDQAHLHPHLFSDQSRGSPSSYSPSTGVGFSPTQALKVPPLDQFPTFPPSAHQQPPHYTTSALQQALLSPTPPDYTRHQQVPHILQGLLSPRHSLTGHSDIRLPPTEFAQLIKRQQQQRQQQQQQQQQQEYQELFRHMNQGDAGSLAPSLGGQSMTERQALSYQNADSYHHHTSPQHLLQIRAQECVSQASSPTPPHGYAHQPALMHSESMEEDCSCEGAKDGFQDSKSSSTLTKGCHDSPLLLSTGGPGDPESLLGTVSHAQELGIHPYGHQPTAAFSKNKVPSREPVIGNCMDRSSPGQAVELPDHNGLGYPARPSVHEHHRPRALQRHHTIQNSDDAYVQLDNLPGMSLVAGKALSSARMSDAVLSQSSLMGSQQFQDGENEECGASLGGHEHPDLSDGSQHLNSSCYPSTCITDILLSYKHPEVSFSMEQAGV

Row | IC50 (SIK3) [nM] | IC50 (SIK1) [nM] | IC50 (SIK2) [nM] | SMILES
1 | 1 | 152 | 1.2 | Cc1ccc(Nc2ccc3c(c2)ncn3-c2ccc(C(C)O)c(-c3nn(C(F)F)cc3C)n2)nn1 (stereo not drawn) [Example 363, 1-[2-[1-(difluoromethyl)-4-methyl-pyrazol-3-yl]-6-[5-[(6-methylpyridazin-3-yl)amino]benzimidazol-1-yl]-3-pyridyl]ethanol]
2 | 11.7 | 8 | 2.9 | Cc1cc(C(F)F)nn1-c1nc(-n2cnc3cc(F)c(Nc4ccc(F)c(F)c4F)cc32)ccc1C(C)O (stereo not drawn) [Example 364, 1-[2-[3-(difluoromethyl)-5-methyl-pyrazol-1-yl]-6-[5-fluoro-6-(2,3,4-trifluoroanilino)benzimidazol-1-yl]-3-pyridyl]ethanol]
3 | 446 | 20 | 44.6 | Cc1cc(C#N)nn1-c1nc(-n2cnc3ccc(-c4ccc5c(n4)C(=O)N(C)C5)cc32)ccc1C(C)O (stereo not drawn) [Example 365, 1-[3-(1-hydroxyethyl)-6-[6-(6-methyl-7-oxo-5H-pyrrolo[3,4-b]pyridin-2-yl)benzimidazol-1-yl]-2-pyridyl]-5-methyl-pyrazole-3-carbonitrile]
4 | 23.3 | 133 | 58.2 | Cc1cc(C#N)nn1-c1nc(-n2cnc3cc(-c4ccc5c(n4)C(=O)N(C)C5)ccc32)ccc1C(C)O (stereo not drawn) [Example 366, 1-[3-(1-hydroxyethyl)-6-[5-(6-methyl-7-oxo-5H-pyrrolo[3,4-b]pyridin-2-yl)benzimidazol-1-yl]-2-pyridyl]-5-methyl-pyrazole-3-carbonitrile]
5 | 0.8 | 88 | 1.5 | Cc1cc(OC(F)F)nn1-c1nc(-n2cnc3cc(Nc4ccc(C(F)F)nn4)ccc32)ccc1C(C)O (stereo not drawn) [Example 367, 1-[2-[3-(difluoromethoxy)-5-methylpyrazol-1-yl]-6-[5-[[6-(difluoromethyl)pyridazin-3-yl]amino]benzimidazol-1-yl]pyridin-3-yl]ethanol]
6 | 1100 | 106 | 77.1 | CCc1cc(C(F)F)nn1-c1nc(-n2cnc3ccc(Nc4ccc(C)nn4)cc32)ccc1C(C)O (stereo not drawn) [Example 368, 1-[2-[3-(difluoromethyl)-5-ethyl-pyrazol-1-yl]-6-[6-[(6-methylpyridazin-3-yl)amino]benzimidazol-1-yl]-3-pyridyl]ethanol]
7 | 4.1 | 1320 | 8.2 | Cc1ccc(Nc2ccc3c(c2)ncn3-c2ccc(C(C)O)c(-n3nc(C(F)F)c(C)c3C)n2)nn1 (stereo not drawn) [Example 369, 1-[2-[3-(difluoromethyl)-4,5-dimethyl-pyrazol-1-yl]-6-[5-[(6-methylpyridazin-3-yl)amino]benzimidazol-1-yl]-3-pyridyl]ethanol]
8 | 2 | 496 | 7.1 | CCc1cc(C(F)F)nn1-c1nc(-n2cnc3cc(Nc4ccc(C)nn4)ccc32)ccc1C(C)O (stereo not drawn) [Example 370, 1-[2-[3-(difluoromethyl)-5-ethyl-pyrazol-1-yl]-6-[5-[(6-methylpyridazin-3-yl)amino]benzimidazol-1-yl]-3-pyridyl]ethanol]
9 | 433 | 145 | 84.7 | Cc1cc(C(F)F)nn1-c1nc(-n2cnc3cc(F)c(Nc4ccc(Cl)nn4)cc32)ccc1C(C)O (stereo not drawn) [Example 371, 1-[6-[6-[(6-chloropyridazin-3-yl)amino]-5-fluoro-benzimidazol-1-yl]-2-[3-(difluoromethyl)-5-methyl-pyrazol-1-yl]-3-pyridyl]ethanol]
10 | 3.6 | 1220 | 8.5 | Cc1cc(C(F)F)nn1-c1nc(-n2cnc3cc(Nc4ccc(Cl)nn4)c(F)cc32)ccc1C(C)O (stereo not drawn) [Example 372, 1-[6-[5-[(6-chloropyridazin-3-yl)amino]-6-fluoro-benzimidazol-1-yl]-2-[3-(difluoromethyl)-5-methyl-pyrazol-1-yl]-3-pyridyl]ethanol]
